# Experimental data reported in patent publication US20210077491A1, “PHARMACEUTICAL COMPOSITION” (Kowa Company, Ltd., priority 2017, published 2021).
# What was measured:
# Assay type in all cases: in vivo, mouse
# [1] = tested on: pulmonary fibrosis model mice (intratracheal bleomycin); test: Lung weight in bleomycin-induced pulmonary fibrosis model mice, preventive dosing (Example 1); details: male ICR mice, bleomycin 1.5 mg/kg intratracheal, lungs at day 21, FIG. 1; for lung weight as compared to the normal group: oral from the day after exposure, compound A 50 mg/kg/day, losartan 50 mg/kg/day, pirfenidone 400 mg/kg/day
# Experimental: (§1) 6-week-old male ICR mice (Japan SLC, Inc.) were exposed to bleomycin (Nippon Kayaku Co., Ltd.) (1.5 mg/kg) dissolved in physiological saline in the trachea to prepare pulmonary fibrosis model mice.
# (§2) Investigation was conducted in mice not exposed to bleomycin (exposed to physiological saline in the trachea) in the normal group (6 mice), and pulmonary fibrosis model mice exposed to bleomycin in the trachea divided into 4 groups (control, compound A 50 mg/kg/day, losartan 50 mg/kg/day, and pirfenidone 400 mg/kg/day; 10 mice in each group). From the day after exposure to bleomycin, a 0.5% aqueous solution of methylcellulose was orally administered (administered twice a day) to the normal group and the control group, the sample solution of compound A prepared above was orally administered (administered once a day) to the compound A administration group, the sample solution of losartan prepared above was orally administered (administered once a day) to the losartan administration group, and the sample solution of pirfenidone prepared above was orally administered (administered twice a day) to the pirfenidone administration group, respectively. Twenty-one days after the bleomycin exposure, the mice were anesthetized and whole lung tissues were extracted.
# After washing the lung tissue extracted from the mouse with physiological saline, water was removed with a filter paper, and the wet weight was measured.
# [2] = tested on: pulmonary fibrosis model mice (intratracheal bleomycin); test: Amount of hydroxyproline in the lungs of bleomycin-induced pulmonary fibrosis model mice, preventive dosing (Example 1); details: preventive: oral from the day after bleomycin exposure, FIG. 2; for hydroxyproline in the lung as compared to the control group: compound A 50 mg/kg/day, losartan 50 mg/kg/day, lungs at day 21, Dunnett test
# Experimental: as §1, §2
# The lung tissue extracted from the mouse was homogenized in a PBS solution, then mixed with an equal volume of 12N hydrochloric acid in a tube, and incubated at 110° C. for 20 to 24 hours. After the incubation, the solution was volatilized by opening the tube and continuing the incubation. […] 10 μL of the sample was added with 100 μL of chloramine T solution (1.4% chloramine T, 10% n-propanol, 80% citrate acetate buffer) and incubated at room temperature for 20 minutes, then added with 100 μL of Ehrlich's reagent (1 M p-dimethylamino benzaldehyde, 20% perchloric acid, 50% n-propanol) and incubated at 65° C. for 15 minutes, and the absorbance at 550 nm was measured to quantify the amount of hydroxyproline.
# [3] = tested on: pulmonary fibrosis model mice (intratracheal bleomycin); test: Amount of hydroxyproline in the lungs of bleomycin-induced pulmonary fibrosis model mice, therapeutic dosing (Example 2); details: therapeutic: oral from the 7th day after bleomycin exposure; compound A 50 mg/kg/day, losartan 50 mg/kg/day, pirfenidone 400 mg/kg/day; lungs at day 21; Dunnett test; FIG. 3
# Experimental: Model mice were prepared in the same manner as in Example 1.
# as §2, with “From the 7th day after” for “From the day after”
# The amount of hydroxyproline in the mice was measured by the same method as in Example 1.
Compound,lung weight as compared to the normal group [1],hydroxyproline in the lung as compared to the control group [2],hydroxyproline in the lung as compared to the control group [3],"lung weight as compared with the control group ([1]; oral 50 mg/kg/day once a day from the day after exposure, Dunnett test p<0.05)","decrease in hydroxyproline in the lung relative to the losartan administration group ([2]; compound A 50 mg/kg/day vs losartan 50 mg/kg/day, day 21)"
CCCCc1nc(Cl)c(CO)n1Cc1ccc(-c2ccccc2-c2nn[nH]n2)cc1 [losartan],significant increase in lung weight,significant decrease in hydroxyproline in the lung,no significant difference,,
"CCCc1nc(C(C)C)n(-c2ncc(OCC)cn2)c(=O)c1Cc1ccc(-c2ccccc2-c2noc(=O)[nH]2)nc1 [compound A, 3-[2-(5-{[1-(5-ethoxypyrimidin-2-yl)-2-isopropyl-6-oxo-4-propyl-1,6-dihydropyrimidin-5-yl]methyl}pyridin-2-yl)phenyl]-1,2,4-oxadiazol-5(4H)-one]",no significant increase in lung weight,significant decrease in hydroxyproline in the lung,significant decrease in hydroxyproline in the lung,significant decrease in lung weight,larger decrease than the losartan administration group
Cc1ccc(=O)n(-c2ccccc2)c1 [pirfenidone],significant increase in lung weight,,no significant difference,,
